Reference: a melting point compilation (Tetko et al.)

SMILES	melting point
CC(C)CCNc1c(N)n(Cc2ccccc2)c(=O)[nH]c1=O	203 to 205 °C
O=C1CC(c2cccnc2)CN1 (stereo not drawn)	69 to 71 °C
CC(O)C1CCCCN1C(=O)OC(C)(C)C (stereo not drawn)	46 to 48 °C
O=C(c1cccs1)c1cccc2ccccc12	65 to 67 °C
NC(=NO)c1ccccc1CN1CCCCC1	114 to 116 °C
NC(=O)c1cc(Cl)ccn1	157 to 159 °C
N#CCS(N)(=O)=O	100 to 102 °C
O=C1NC(=O)C(=O)C(=O)N1	255 to 257 °C
Nc1ccc2[nH]c(-c3ccc(F)cc3)nc2c1	118 to 120 °C
Cc1c(C(N)=O)sc2nc[nH]c(=O)c12	283 to 285 °C
Cc1ncsc1C(=O)NN	168 to 170 °C
O=c1[nH][nH]c2cccc(Cl)c12	247 to 249 °C
Nc1ccccc1NC(=O)c1cccs1	110 to 112 °C
CS(=O)(=O)CCCC(=O)O	78 to 80 °C
Nc1ccnn1C1CCS(=O)(=O)C1 (stereo not drawn)	169 to 171 °C
CCOc1c(N)cc(Cl)cc1Br	45 to 47 °C
COc1ccccc1NS(=O)(=O)c1cc(N)ccc1N1CCOCC1	197 to 199 °C
O=C1CCC(O)(c2cccc(Cl)c2)CC1	119 to 121 °C
O=C(O)CNc1nc2ccccc2s1	174 to 176 °C
COc1ccc(S)c2ccccc12	142 to 144 °C
Nc1cccc(N2CCNC2=O)c1	149 to 151 °C
O=C(O)c1c[nH]nn1	212 to 214 °C
COc1ccccc1NC(=O)CC1Nc2ccccc2NC1=O (stereo not drawn)	172 to 174 °C
Nc1ccc(Cl)cc1C(O)c1ccccc1 (stereo not drawn)	105 to 107 °C
O=Cc1cnc2cnccn12	178 to 180 °C

SMILES	melting point
ClCc1ncc(-c2ccc(Br)cc2)o1	80 to 82 °C
CCOC(=O)/C(C#N)=C\Nc1ccccc1F	142 to 144 °C
COc1cccc(C2(C)NC(=O)NC2=O)c1 (stereo not drawn)	119 to 121 °C
O=C(O)C1CCCN(C(=O)c2ccc(Cl)cc2)C1 (stereo not drawn)	145 to 152 °C
Nc1cc([N+](=O)[O-])ccc1Nc1ccc(F)cc1	162 to 164 °C
NC(=O)CCc1ccc(N)cc1	131 to 133 °C
CC(C)(C)c1n[nH]c(O)c1CCC#N	218 to 220 °C
Nc1nc(-c2ccccc2O)cs1	140 to 142 °C
Cc1nccn1-c1ccc(C#N)cn1	213 to 215 °C
CCc1cc(C(=O)O)sc1C	108 to 110 °C
O=C(O)C1(c2ccc(Br)cc2)CCCCC1	179 to 181 °C
CCOC(=O)N1CCCC(C(=O)O)C1 (stereo not drawn)	68 to 70 °C
CC(=O)Nc1ccc(N)c(Br)c1	79 to 81 °C
NC(=O)C1CNCCN1 (stereo not drawn)	142 to 144 °C
COc1ccc(C=O)cc1OCc1cccnc1	84 to 86 °C
CN(C)CCOc1cc(N)ccn1	87 to 89 °C
NC(=S)Cc1ccc(Br)cc1	146 to 148 °C
COc1ccc(N)cc1S(=O)(=O)NC1CC1	163 to 165 °C
O=C(CCCl)NCCc1ccccc1	56 to 58 °C
CC(C)(C)NC(=O)c1cccc(N)c1	124 to 126 °C
O=C(O)C1CCCN1C(=O)Cc1cccs1 (stereo not drawn)	139 to 141 °C
O=C(O)Cc1csc(-c2ccc(F)cc2)n1	129 to 131 °C
O=c1[nH]nnc2c1cnn2-c1ccccc1	144 to 146 °C
CS(=O)(=O)CCn1cc(Br)cn1	94 to 96 °C
NC(=NO)c1ccc(Cn2cnc3ccccc32)cc1	237 to 239 °C

SMILES	melting point
CCOC(=O)Cn1ncc2ccc(N)cc21	114 to 116 °C
COc1ccc(S(=O)(=O)Cl)c(Cl)c1Cl	92 to 94 °C
CC(=O)c1cncc(F)c1	48 to 50 °C
NCc1ccnc(NC2CC2)c1	39 to 41 °C
CC(C)C(C(=O)O)c1ccc(F)cc1 (stereo not drawn)	59 to 61 °C
NS(=O)(=O)Cc1ccc(Cl)cc1Br	169 to 171 °C
O=C(O)c1cc(Cl)c([N+](=O)[O-])[nH]1	236 to 238 °C
O=C(O)c1cc(-c2ccccc2)ccc1Cl	199 to 201 °C
CCc1nnc(NC(=O)CCl)s1	101 to 103 °C
CC(C)c1noc2ncc(C(=O)O)cc12	159 to 161 °C
NC(=O)C1CCN(CCc2ccc(N)cc2)CC1	223 to 225 °C
O=C(O)c1ccc2c(c1)C(=O)N(CC1CCCO1)C2=O (stereo not drawn)	153 to 155 °C
CC(=O)c1nnn(-c2ccccc2)c1C	99 to 101 °C
CC(=O)N1CC=C(c2ccc(O)cc2)CC1	188 to 190 °C
Cc1csc2ncc(C(=O)O)c(=O)n12	249 to 251 °C
CC(C)c1[nH]nc(C(=O)O)c1[N+](=O)[O-]	149 to 151 °C
Cc1ccc(S(C)(=O)=O)cc1C(=O)O	204 to 206 °C
CC1(C)CCCCC1CC(=O)O (stereo not drawn)	41 to 43 °C
O=C(Cc1ccc(O)cc1)NCCO	134 to 136 °C
c1ccc(CCNc2nc(-c3ccccc3)cs2)cc1	115 to 117 °C
CN(C(=O)CC#N)c1ccccc1	86 to 88 °C
O=C(CCl)NC1C2CC3CC(C2)CC1C3 (stereo not drawn)	118 to 122 °C
Nc1nnc(-c2ccc3ccccc3c2)o1	274 to 276 °C
